Literature values, collected in patent publication US20100129448A1, “TOPICAL HYDROGEL COMPOSITION” (Nanotherapeutics, Inc., priority 2008, published 2010).

| aqueous solubility (pH greater than 6) | solubility (neutral pH) | SMILES |
| --- | --- | --- |
| less than 0.8 mg/ml |  | C[C@H]1c2cccc(O)c2C(=O)C2=C(O)[C@]3(O)C(=O)C(C(N)=O)=C(O)[C@@H](N(C)C)[C@@H]3[C@@H](O)[C@@H]21 [Doxycycline Monohydrate] |
|  | less than 10 mg/ml | C[C@H]1c2cccc(O)c2C(=O)C2=C(O)[C@]3(O)C(=O)C(C(N)=O)=C(O)[C@@H](N(C)C)[C@@H]3[C@@H](O)[C@@H]21 [Doxycycline] |
